Measurements reported in US20260257992A1, “AGONISTS OF SMALL HETERODIMER PARTNER FOR CANCER THERAPY” (THE BOARD OF TRUSTEES OF THE UNIVERSITY OF ILLINOIS, priority 2023, published 2026).

Assays:
[1] = test system: dendritic cells from MMTV-PyMT tumors; experiment: DCs (CD11B+; CD11C+) isolated from MMTV-PyMT tumors, treated ex vivo; format: cell-based, mouse
From the text: FIG. 3A-3F. DSHN, a tool small molecule agonist of NR0B2 reduces macrophage/dendritic cell induced Treg expansion and tumor growth in murine models. […] (B) Dendritic cells (left-CD11B^+; CD11C^+) and CD4^+ T cells (right) were isolated from MMTV-PyMT tumors by FACS, and treated with vehicle or DSHN for 3d. The resulting frequency of Treg (CD4^+; CD25^+; FoxP3^+) was quantified by flow cytometry (right graph), (N=3-5/group, t test). […] The percentage of divided CD8+ T cells in the second round was quantified. (D) DSHN increases efficacy of αPDL1 therapy on orthotopic E0771 tumors. An optimal number of E0771 cells were grafted into FoxP3-EGFP mice and allowed to grow until tumors reached 100 mm^3. Mice were euthanized on day 19 (waterfall plot, Fisher's exact test). (E) DSHN increases efficacy of αPDL1 therapy on orthotopic 4T1 tumors. 4T1 cells were orthotopically grafted into mice and allowed to establish for 5d prior to treatment start. Mice were euthanized on day 16 (waterfall plot, Fisher's exact test). (F) DSHN reduces metastatic outgrowth of 4T1 tumors and enhances efficacy of αPDL1 compared to placebo (p) (2-way ANOVA followed by Šidák's multiple comparison test for day 16). 4T1 cells were grafted intravenously, and lung metastatic lesions allowed to establish for 3d before treatment commenced. At the end of the study, lungs were removed and imaged ex vivo, quantified data indicated (N=10, 1-way ANOVA followed by Newman-Keuls multiple comparison test). Representative luciferase images shown to the right. * or different letters denote P<0.05 using indicated statistical test.
Since myeloid cells are thought to have been uniquely polarized within the tumor microenvironment, and in order to determine whether DSHN could overcome this, we isolated DCs (CD11B^+; CD11C^+) from MMTV-PyMT tumors. […] Cd4^+ T cells expanded in co-culture with DSHN pre-treated BMDMs had decreased suppressive capacity in terms of secondary CD8+ expansion (FIG. 3C).

NR0B2 = target: T1, NR0B2 (Mus musculus, UniProt Q62227); experiment: Attenuation of GW3965 (LXR agonist) induction of ABCA1 mRNA in BMDMs; format: cell-based
T1 construct: Dose response assay in BMDMs pre-treated with increasing doses of DSHN-OMe and then treated with 1 μM GW3965, using ABCA1 mRNA as an endpoint; endogenous in cells; host or cells: mouse bone marrow derived macrophages (BMDMs)
T1 sequence (Q62227 1-260): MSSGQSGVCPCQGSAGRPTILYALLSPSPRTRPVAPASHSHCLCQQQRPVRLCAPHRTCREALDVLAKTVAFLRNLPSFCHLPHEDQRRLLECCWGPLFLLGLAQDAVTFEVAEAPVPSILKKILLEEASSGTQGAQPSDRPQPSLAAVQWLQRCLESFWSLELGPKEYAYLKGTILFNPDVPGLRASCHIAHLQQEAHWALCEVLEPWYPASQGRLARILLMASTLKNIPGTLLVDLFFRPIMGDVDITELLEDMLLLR
Description: FIG. 5A-5D. DSHN-OMe, an NR0B2 small molecule ligand with increased potency in terms of reducing Treg expansion and strong efficacy against metastatic mammary tumors. (A) DSHN-OMe effectively reduces induction of LXR target gene ABCA1 by GW3965. Different letters denote statistical difference between GW3965 treated groups (N=3-4/group, 1-way ANOVA followed by Šidák test). (B) Dose response assay in BMDMs pre-treated with increasing doses of DSHN-OMe and then treated with 1 μM GW3965, using ABCA1 mRNA as an endpoint. Data was normalized to 0.01 μM DSHN-OMe (0%) and GW3965 alone (100%). DSHN (100 μM) is indicated for comparison (bar at end of graph). […] (C) Thermal shift assay using a recombinant protein presence of a fluorescent dye. Plot of raw data is above plot of first derivative. (D) DSHN-OMe is ineffective at regulating ABCA1 when NR0B2 is knocked down with siRNA in BMDMs.
The TM for apo/unliganded was 46.74±0.22, DSHN-OMe at 46.92±0.17 and DSHN at 46.34±0.51° C. (FIG. 5C).

IC50 (NR0B2; BMDMs pre-treated with compound, then 1 μM GW3965, 4 parameter variable slope fit, read-out: IC50, ABCA1 mRNA as endpoint)	Compound	Treg expansion, tumor DCs co-cultured with CD4+ T cells [1]	PD-L1 positivity of tumor DCs ([1]; cultured with DSHN followed by LPS and IFNγ)	Viability of tumor DCs ([1]; versus vehicle treated DCs from the same tumor)	LXR induction of ABCA1 (NR0B2; BMDMs, GW3965)	Attenuation of ABCA1 induction with NR0B2 knockdown (NR0B2; BMDMs, NR0B2 siRNA, GW3965)
–	CCN(CC)S(=O)(=O)c1cccc2cc(C(=O)O)c(O)cc12 [DSHN, reference compound]	decreased expansion of Treg cells	decreased PD-L1 positivity	increased viability	–	–
3.8 µM	CCN(CC)S(=O)(=O)c1cccc2cc(C(=O)OC)c(O)cc12 [DSHN-OMe, Methyl 5-(N,N-diethylsulfamoyl)-3-hydroxy-2-naphthoate]	–	–	–	reducing LXR induction of ABCA1 in a dose-related manner	lost when NR0B2 was knocked down in BMDMs
